Data: patent publication US10280170B2, “Substituted 4,5,6,7-tetrahydro-pyrazolo[1,5-a]pyrazine derivatives and 5,6,7,8-tetrahydro-4H-pyrazolo[1,5-a][1,4]diazepine derivatives as Ros1 inhibitors” (Janssen Pharmaceutica NV, priority 2014, dated 2019)
“And” between values parts separate entries of the source, which are not always exact repeats. Equal values may be shown once.

Experiments:
Ros1 enzyme = biological target: T1, Ros1 enzyme (Homo sapiens, UniProt P08922); assay: Ros1 enzymatic assay; format: biochemical; settings: Ros1 enzymatic assay; read-out: ROS1 pIC50 (converted)
T1 construct: 0.5 μg/ml Ros1 enzyme
Summary of the method: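 Ros1 (0.5 μg/ml in enzyme mix) was combined with a substrate mix of biotinylated IRS-Tide (6 μg/ml) and 20 μM ATP spiked with 33P-ATP in 50 mM Tris-HCl pH7.5, 10 mM MgCl2, 1 mM EGTA, 0.01% Tween-20. Reaction ran 120 min at room temperature before EDTA stop.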

[1] = system: Ros pY2274 in HCC78 cells; assay: pROS1 immunofluorescence assay in HCC78 cells; format: cell-based; settings: Homo sapiens, HCC78, 4 h, read-out: HCC78-pRos1 pIC50 (converted)
Summary of the method: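 HCC78 NSCLC cells treated with compound for 4 h at 37 °C, then fixed and immunostained for ROS1 pY2274 (Alexa Fluor 680, read at 700 nm). Total ROS1 stained in parallel (IRDye800cw, 800 nm) and used to normalize phospho signal.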

[2] = biological target: Ba/F3 cells containing Ros1 with a mutation at the gatekeeper residue (L2026M) (Homo sapiens, UniProt P08922, L2026M, cells depend on it, form not given); assay: Ba/F3-Ros1 cell proliferation assay, L2026M gatekeeper mutant; format: cell-based, murine; settings: without IL-3
Summary of the method: (§1)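 Ba/F3 cells expressing wild-type, L2026M or G2032R Ros1, 20000 cells/well in phenol red-free RPMI-1640 with 10% FBS, 2 mM L-glutamine, exposed to compound for 24 h at 37 °C, 5% CO2. Viability read by Alamar Blue (resazurin) fluorescence, ex 540/em 590 nm, after 4 h further incubation.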

[3] = system: Ba/F3 tumors containing wild-type Ros1; assay: Efficacy study in mice bearing Ba/F3-Ros1 tumors, wild-type Ros1; format: in vivo, NMRI nude mice; settings: oral gavage, 10 days
Method: (§2) Efficacy Studies in Mice Bearing Ba/F3-Ros1 Tumors
(§3) Approximately 2×10^6 Ba/F3 cells containing either wild-type, L2026M or G2032R mutant Ros1 were inoculated into the inguinal region of NMRI nude mice. When the resulting tumors reached a size of 250 to 350 mm^3, mice were randomly assigned to the different treatment groups (8 to 12 mice per group). Compounds formulated in 20% cyclodextrin were administered to the mice by oral gavage at various doses for 10-days once (QD) or twice (BID) a day. Tumor sizes were determined by caliper measurement on day 1 prior to treatment and then twice weekly for the duration of the study using the commonly following formula: tumor volume (mm^3)=(a×b^2/2); where ‘a’ represents the length, and ‘b’ the width of the tumor. Treatment/control (T/C) ratios were calculated at the end of the study based on the change in final relative tumor volumes.

[4] = biological target: Ba/F3 cells containing Ros1 with G2032R mutation (Homo sapiens, UniProt P08922, G2032R, cells depend on it, form not given); assay: Ba/F3-Ros1 cell proliferation assay, G2032R crizotinib-resistance mutant; format: cell-based, murine; settings: without IL-3
Summary of the method: as §1

[5] = system: Ba/F3 tumors containing G2032R mutant Ros1; assay: Efficacy study in mice bearing Ba/F3-Ros1 tumors, G2032R mutant Ros1; format: in vivo, NMRI nude mice; settings: oral gavage, 10 days
Method: as §2, §3

[6] = system: Ba/F3 cells containing Ros1 wild-type protein + IL-3; assay: Ba/F3-Ros1 cell proliferation counter-screen, wild-type protein in the presence of 10 ng/ml murine IL-3; format: cell-based; settings: Mus musculus, BaF3, 24 h, read-out: BaF3-ROS1 + IL3 pIC50 (converted)
Summary of the method: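 Ba/F3 cells expressing wild-type Ros1 were grown with 10 ng/ml murine IL-3 and test compound in RPMI-1640 with 10% FBS and 2 mM L-glutamine for 24 h at 37 °C, 5% CO2. Viability was then read as Alamar Blue (resazurin) fluorescence (ex 540/em 590 nm) after 4 h further incubation.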

Chain of Ba/F3 cells containing Ros1 with a mutation at the gatekeeper residue (L2026M) (P08922 whole entry L2026M, form open): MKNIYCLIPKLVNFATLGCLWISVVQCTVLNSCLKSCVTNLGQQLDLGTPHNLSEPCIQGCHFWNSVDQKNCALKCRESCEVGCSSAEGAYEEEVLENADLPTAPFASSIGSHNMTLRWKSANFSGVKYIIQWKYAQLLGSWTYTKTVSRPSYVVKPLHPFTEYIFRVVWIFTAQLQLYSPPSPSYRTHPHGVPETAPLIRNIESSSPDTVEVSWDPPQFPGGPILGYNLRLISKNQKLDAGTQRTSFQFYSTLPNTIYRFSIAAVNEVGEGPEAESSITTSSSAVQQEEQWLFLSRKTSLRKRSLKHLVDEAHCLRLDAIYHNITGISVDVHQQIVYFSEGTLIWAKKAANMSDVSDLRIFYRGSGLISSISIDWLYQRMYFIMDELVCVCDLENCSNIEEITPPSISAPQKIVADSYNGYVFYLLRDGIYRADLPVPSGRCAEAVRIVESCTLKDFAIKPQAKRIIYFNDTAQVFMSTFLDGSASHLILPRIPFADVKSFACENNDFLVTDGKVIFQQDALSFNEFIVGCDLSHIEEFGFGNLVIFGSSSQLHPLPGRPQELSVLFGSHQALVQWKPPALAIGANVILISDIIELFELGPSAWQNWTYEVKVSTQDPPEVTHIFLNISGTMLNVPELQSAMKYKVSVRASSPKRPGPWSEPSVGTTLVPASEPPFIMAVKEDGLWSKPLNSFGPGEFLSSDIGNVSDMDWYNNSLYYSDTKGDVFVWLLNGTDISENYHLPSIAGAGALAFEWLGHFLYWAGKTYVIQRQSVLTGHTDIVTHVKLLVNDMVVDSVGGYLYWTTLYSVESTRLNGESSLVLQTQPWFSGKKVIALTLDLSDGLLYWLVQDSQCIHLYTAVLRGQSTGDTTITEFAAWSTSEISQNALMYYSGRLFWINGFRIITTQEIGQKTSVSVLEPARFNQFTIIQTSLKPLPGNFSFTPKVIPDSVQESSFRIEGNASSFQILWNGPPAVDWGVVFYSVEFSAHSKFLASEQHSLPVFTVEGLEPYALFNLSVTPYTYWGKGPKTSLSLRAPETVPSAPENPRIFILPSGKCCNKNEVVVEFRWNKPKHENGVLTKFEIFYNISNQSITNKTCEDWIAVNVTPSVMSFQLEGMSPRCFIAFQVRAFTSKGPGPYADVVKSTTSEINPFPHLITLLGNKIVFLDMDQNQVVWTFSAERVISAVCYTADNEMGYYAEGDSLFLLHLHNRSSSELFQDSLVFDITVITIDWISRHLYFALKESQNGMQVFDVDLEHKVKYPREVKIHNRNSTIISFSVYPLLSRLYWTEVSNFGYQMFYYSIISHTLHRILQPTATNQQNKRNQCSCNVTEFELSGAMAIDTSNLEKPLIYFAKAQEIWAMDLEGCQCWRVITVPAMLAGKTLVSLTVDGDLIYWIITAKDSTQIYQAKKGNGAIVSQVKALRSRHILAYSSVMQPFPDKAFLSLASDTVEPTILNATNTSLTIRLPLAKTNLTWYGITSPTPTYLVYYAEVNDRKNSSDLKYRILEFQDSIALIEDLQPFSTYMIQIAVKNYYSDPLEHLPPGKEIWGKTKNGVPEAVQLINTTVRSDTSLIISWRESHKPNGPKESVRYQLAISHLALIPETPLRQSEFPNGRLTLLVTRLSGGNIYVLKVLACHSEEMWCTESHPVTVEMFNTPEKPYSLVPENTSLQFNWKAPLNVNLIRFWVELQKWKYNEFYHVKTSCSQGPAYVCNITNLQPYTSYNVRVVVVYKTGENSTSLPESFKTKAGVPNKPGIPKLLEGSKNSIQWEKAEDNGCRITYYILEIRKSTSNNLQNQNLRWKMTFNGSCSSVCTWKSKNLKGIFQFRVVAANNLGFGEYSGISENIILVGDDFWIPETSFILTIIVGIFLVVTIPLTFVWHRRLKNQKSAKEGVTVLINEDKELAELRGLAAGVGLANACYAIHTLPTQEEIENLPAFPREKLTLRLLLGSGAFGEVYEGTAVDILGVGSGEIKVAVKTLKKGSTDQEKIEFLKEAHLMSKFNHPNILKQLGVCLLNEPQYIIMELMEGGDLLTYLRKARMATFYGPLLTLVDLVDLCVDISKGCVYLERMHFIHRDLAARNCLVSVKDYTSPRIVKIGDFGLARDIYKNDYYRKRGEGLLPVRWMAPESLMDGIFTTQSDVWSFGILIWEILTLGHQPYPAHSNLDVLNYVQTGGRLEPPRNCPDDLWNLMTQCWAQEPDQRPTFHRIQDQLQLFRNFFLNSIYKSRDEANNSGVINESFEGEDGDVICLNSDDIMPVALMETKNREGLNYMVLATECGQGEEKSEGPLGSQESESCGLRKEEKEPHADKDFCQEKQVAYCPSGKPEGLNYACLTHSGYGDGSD
T1 sequence (P08922 28-2347): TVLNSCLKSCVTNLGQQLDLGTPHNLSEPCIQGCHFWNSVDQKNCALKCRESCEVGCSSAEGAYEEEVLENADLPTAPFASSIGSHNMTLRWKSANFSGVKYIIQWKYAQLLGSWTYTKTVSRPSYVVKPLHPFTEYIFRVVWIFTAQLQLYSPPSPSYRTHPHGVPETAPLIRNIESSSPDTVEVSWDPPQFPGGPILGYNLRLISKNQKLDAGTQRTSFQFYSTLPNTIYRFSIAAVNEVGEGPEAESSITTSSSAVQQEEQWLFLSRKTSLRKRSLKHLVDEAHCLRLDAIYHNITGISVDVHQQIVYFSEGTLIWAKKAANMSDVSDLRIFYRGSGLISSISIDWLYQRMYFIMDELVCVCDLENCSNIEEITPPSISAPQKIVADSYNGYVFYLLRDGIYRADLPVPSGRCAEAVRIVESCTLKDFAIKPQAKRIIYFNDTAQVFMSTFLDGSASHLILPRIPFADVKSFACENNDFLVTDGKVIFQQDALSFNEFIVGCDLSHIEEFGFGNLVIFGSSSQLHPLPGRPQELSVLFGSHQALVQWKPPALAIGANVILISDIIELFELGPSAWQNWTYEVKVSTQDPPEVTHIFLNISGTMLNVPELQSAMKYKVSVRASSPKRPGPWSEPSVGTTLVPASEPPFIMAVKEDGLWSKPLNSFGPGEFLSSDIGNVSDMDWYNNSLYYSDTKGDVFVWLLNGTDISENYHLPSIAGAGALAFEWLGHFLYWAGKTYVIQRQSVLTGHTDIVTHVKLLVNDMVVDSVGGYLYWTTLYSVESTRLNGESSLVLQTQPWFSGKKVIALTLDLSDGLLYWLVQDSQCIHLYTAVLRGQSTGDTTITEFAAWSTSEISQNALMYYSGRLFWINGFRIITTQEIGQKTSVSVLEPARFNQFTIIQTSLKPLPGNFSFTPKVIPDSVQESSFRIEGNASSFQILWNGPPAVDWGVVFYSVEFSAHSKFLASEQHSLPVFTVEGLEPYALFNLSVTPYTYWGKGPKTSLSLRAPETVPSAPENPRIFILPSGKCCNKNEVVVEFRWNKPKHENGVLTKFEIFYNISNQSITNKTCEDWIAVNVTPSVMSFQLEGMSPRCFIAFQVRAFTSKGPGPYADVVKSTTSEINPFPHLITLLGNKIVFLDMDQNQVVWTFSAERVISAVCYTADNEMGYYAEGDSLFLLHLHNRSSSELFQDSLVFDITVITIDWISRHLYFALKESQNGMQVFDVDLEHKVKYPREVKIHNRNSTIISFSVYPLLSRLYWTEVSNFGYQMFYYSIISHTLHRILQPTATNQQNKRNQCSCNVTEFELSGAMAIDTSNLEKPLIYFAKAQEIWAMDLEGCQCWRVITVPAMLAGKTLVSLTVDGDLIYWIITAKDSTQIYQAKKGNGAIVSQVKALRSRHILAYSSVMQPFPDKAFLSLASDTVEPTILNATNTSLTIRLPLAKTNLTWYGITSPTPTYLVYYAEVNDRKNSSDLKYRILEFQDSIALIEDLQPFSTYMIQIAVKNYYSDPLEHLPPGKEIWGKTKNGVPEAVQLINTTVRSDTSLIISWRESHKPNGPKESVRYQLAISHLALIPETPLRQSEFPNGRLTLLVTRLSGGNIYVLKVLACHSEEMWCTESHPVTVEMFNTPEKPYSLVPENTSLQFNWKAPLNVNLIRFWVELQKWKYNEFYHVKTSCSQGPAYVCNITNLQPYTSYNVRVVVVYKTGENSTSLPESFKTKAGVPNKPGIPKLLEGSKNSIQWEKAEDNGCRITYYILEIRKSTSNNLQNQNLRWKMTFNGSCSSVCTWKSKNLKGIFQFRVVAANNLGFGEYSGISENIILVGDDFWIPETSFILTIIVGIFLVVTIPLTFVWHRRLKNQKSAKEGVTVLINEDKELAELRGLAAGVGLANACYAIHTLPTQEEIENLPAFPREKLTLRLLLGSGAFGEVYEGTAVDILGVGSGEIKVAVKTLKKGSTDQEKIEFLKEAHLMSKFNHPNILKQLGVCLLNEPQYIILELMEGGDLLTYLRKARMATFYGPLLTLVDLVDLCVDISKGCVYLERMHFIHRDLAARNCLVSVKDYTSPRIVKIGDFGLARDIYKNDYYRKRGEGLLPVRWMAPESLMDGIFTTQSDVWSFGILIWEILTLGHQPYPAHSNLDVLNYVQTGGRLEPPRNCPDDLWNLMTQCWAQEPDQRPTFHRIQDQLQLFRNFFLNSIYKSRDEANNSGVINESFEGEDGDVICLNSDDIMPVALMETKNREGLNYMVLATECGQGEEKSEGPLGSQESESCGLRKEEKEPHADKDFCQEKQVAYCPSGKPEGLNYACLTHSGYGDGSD
Chain of Ba/F3 cells containing Ros1 with G2032R mutation (P08922 whole entry G2032R, form open): as the sequence (P08922 whole entry L2026M, form open) above, with M2026L, G2032R counted along it

| Compound | IC50 (Ros1 enzyme) [nM] | IC50 [1] [nM] | Ba/F3 Ros1 L2026M (-IL-3) pIC50 [2] | T/C (%) ([3]; 6.25 mg/kg BID) | T/C (%) ([3]; 12.5 mg/kg QD) | T/C (%) ([3]; 25 mg/kg QD) | Ba/3 Ros1 G2032R (-IL-3) pIC50 [4] | T/C (%) ([5]; 12.5 mg/kg BID) | T/C (%) ([5]; 25 mg/kg BID) | CC50 [6] [nM] | other results |
| --- | --- | --- | --- | --- | --- | --- | --- | --- | --- | --- | --- |
| CC(C)c1ccc(COc2ccc(-c3c(-c4ccncc4)nn4c3C(=O)NCC4)cc2)cc1 [Compound 1] | 25.1 | 25.1 | 7.3 | 50 | 12 | −27 | 7.0 | 43 | 7 | > 10000 | T/C (%) ([3]; 1.56 mg/kg QD): 88%; T/C (%) ([3]; 3.125 mg/kg QD): 75%; T/C (%) ([3]; 6.25 mg/kg QD): 35%; T/C (%) ([3]; 12.5 mg/kg BID): 20%; T/C (%) ([3]; 25 mg/kg BID): −13%; T/C (%) ([5]; 6.25 mg/kg BID): 79% |
| CC(C)c1ccc(COc2ccc(-c3c(-c4ccncc4)nn4c3C(=O)N(CCO)CC4)cc2)cc1 [Compound 2] | 20 | 25.1 | 7.4 | 67 | 61 | 46 | 7.1 | 89 | 55 | > 10000 | T/C (%) ([3]; 3.125 mg/kg BID): 91%; T/C (%) ([3]; 12.5 mg/kg BID, 12.5 mg/kg): 47% and 51%; T/C (%) ([3]; 50 mg/kg QD): 20%; T/C (%) ([3]; 100 mg/kg BID): −22%; T/C (%) ([5]; 50 mg/kg BID): 18%; T/C (%) ([5]; 100 mg/kg BID): −16% |
